This note sets out measurements from USRE39220E1, “Peptide-mediated gene transfer” (Genetic Applications, LLC, priority 1994, dated 2006).

Holding throughout (assay type): cell-based
Test [1] relates to mouse erythroleukemia cell line, C19TK. The test is described as follows: Stable transfection of hematopoietic cells in suspension, hygromycin selection (pDR2). The settings on record: pDR2, hygromycin selection in microtiter plates, plated 48 hours after transfection. How it is done:
A mouse erythroleukemia cell line, C19TK, also was used as a representative cell line for testing the transfection efficiency of the present invention with respect to hematopoietic cells. The expression vector, pDR2, which carries a hygromycin-resistance gene, was used for these studies, C19TK cells are exquisitely sensitive for the antibiotic hygromycin.
Briefly, about million cells are spun down and the cell pellet is treated with primer. The cells are then exposed to DNA-polypeptide complex under hypotonic condition. Forty-eight hours after transfection, a known number of cells are plated in microtiter plates with hygromycin. The number of wells with growing population of cells was enumerated to determine the transfection efficiency. The stable transfection efficiency was about 1-5%, as compared to most of the other non-virus-based methods that are very poor. Thus, the method described herein is very efficient for stable transfection efficiency both for hematopoietic and non hematopoietic cell lines. […] See Gilboa, et al. (1986), Miller, et al. (1986), Stuhlmann, et al. (1989), Miller, et al. (1989), and Zwiebel, et al. (1989), each cited above.

The test system of test [2] is Mouse fibroblast cell line (L cells). Description: Selection of stably transfected cell lines (G418-resistant colonies). As to conditions: G418 400 μg/ml selection, colonies counted two weeks after start of selection, similar with hygromycin. The source says:
The DNA or other polynucleotide to be transfected, such as a plasmid containing a gene for a drug resistance marker or coding a protein needed for expression in the host cell, is complexed to a synthetic polypeptide molecule in different weight ratios in an isotonic buffer solution. For example the weight ratio of DNA:polypeptide can be between 1:1 and 10:1, although ratios outside of this range may be evaluated empirically for achieving the objects of the present invention. An isotonic buffer solution such as Hanks buffered salt solution or HEPES buffered saline may be used for complexing DNA to polypeptide.
(§1) While the complex is formed, the cells that are to be transfected either remain attached to a substratum, such as a tissue culture dish, or are pelleted (for cells that grow in suspension). The cells are treated with a hypertonic primer solution, such as a concentration of 0.3M-0.6M sucrose and 10% PEG in either Tris-HCl or HEPES (pH 7.2) buffered solution, for 3-5 mins at room temperature. The primer solution then is removed.
After the DNA-polypeptide complex is formed, it is made hypotonic. […]
Transfected cells are grown in regular growth medium for 48 hours, and then plated in selective medium containing 400 μg/ml of G418. […] The number of G418-resistant colonies was determined two weeks after the initiation of selection. […]

Another test deals with COS cells. The test is described as follows: Transient expression of β-gal reporter gene (CH110) in COS cells. The settings on record: DNA-polypeptide 2.5-5.0 μg, stained 48 hrs after transfection. How it is done:
as §1
After the DNA-polypeptide complex is formed, it is made hypotonic. The complex solution is hypotonic when it has a lesser osmotic pressure than a 0.15M or 0.9% solution of NaCl. For example, the complex in isotonic buffer can be made […] hypotonic or 0.075M simply by adding an amount of distilled water that is equal to the volume of the complex in isotonic buffer. The hypotonic complex solution then is added to the cells that have been treated with the primer solution. Cells remain in the hypotonic DNA-polypeptide solution for 3-4 minutes. Fresh medium then is added to the cells to rinse away excess DNA-polypeptide solution. Thereafter, the cells are grown normally.
Three different cell lines were used to test the efficiency of gene transfer of the new method. Mouse fibroblast cell line (L cells), mouse erythroleukemia cell line (C19TK), and COS cells. The COS cell line was used to establish conditions for transient gene expression. […]
For orientation: A reporter such as luciferase makes a cellular process visible.

With “PKKKRKVSGGGGGKKKKKKKKKKKK [Peptide-Mediated Gene Transfer, synthetic polypeptide (NLS peptide, neutral hinge, polylysine chain) linked electrostatically to DNA, forming a polypeptide-DNA complex]”, the Stable Transfection Efficiency is reported as 1-5% in test [1], 5-10% in test [2] and 5-10% in test [2] (listed as DNA-polypeptide complex). The “cells positive for the expression of the β-gal reporter gene” value in the test with COS cells is “Forty to fifty”.
